Results reported in US6762193B1, “Method of treating hair loss” (priority 2000, dated 2004).

Experiments:
Format in all cases: in vivo, human
[1] = system: Grade IV cystic acne vulgaris; assay: Zafirlukast treatment of a patient with Grade IV cystic acne vulgaris; conditions: person one, 40 mg po bid
[2] = Serum ancillary hormone and liver function studies during zafirlukast treatment
Method: During the summer of 2000 an investigative study was initiated to determine the efficacy of zafirlukast in the treatment of androgenetic alopecia A middle aged blond haired person whom was actively undergoing genetically influenced alopecia was recruited and voluntarily enlisted into the study under informed consent. […] Just two months earlier serum luteinizing hormone, total testosterone, androstenedione and dehydroepiandrosterone sulfate levels were determined to be normal. Having considered that dihydrotestosterone levels may have been suppressed to a low normal range, as pre treatment dihydrotestosterone serum determination had not been performed, the dose of zafirlukast was increased to 40 mg taken by mouth twice daily. Continuing this dose for a one month period of time, serum dihydrotestosterone levels were reanalized and determined to be 21 NG/DL (normal 25 to 75 NG/DL). […] The patient was then withdrawn, from zafirlukast therapy and there were no specific complications or side effects during a one month abstinence from zafirlukast and serum dihydrotestosterone levels were redetermined and found to be 15 NG/DL (normal 25 to 75 NG/DL). This patient was then given the option to continue treatment with zafirlukast at a dose of 40 mg taken by mouth twice daily for the treatment of androgenic alopecia and decided to do so as they had witnessed the continued regrowth of hair and remission of hair loss while taking zafirlukast. […]
In this study a dose and time dependent effect has been identified with the treatment of both acne vulgaris and common baldness in genetically susceptible men and women without physical or psychological compromise, or forfeit of quality of life. […] Serum liver function studies monitored during this study remained in the normal range of value except in one patient with known Hepatitis C and abnormal pretreatment liver function studies; however, in all patients including the one patient with Hepatitis C, serum liver function studies improved with zafirlukast treatment possibly indicating a role in treating liver diseases in the future.

androgenetic alopecia = assay: Investigative study of zafirlukast in androgenetic alopecia / hereditary balding (hair loss and regrowth)
Method: (§1) During the summer of 2000 an investigative study was initiated to determine the efficacy of zafirlukast in the treatment of androgenetic alopecia A middle aged blond haired person whom was actively undergoing genetically influenced alopecia was recruited and voluntarily enlisted into the study under informed consent. […] Just two months earlier serum luteinizing hormone, total testosterone, androstenedione and dehydroepiandrosterone sulfate levels were determined to be normal. Having considered that dihydrotestosterone levels may have been suppressed to a low normal range, as pre treatment dihydrotestosterone serum determination had not been performed, the dose of zafirlukast was increased to 40 mg taken by mouth twice daily. Continuing this dose for a one month period of time, serum dihydrotestosterone levels were reanalized and determined to be 21 NG/DL (normal 25 to 75 NG/DL). […] The patient was then withdrawn, from zafirlukast therapy and there were no specific complications or side effects during a one month abstinence from zafirlukast and serum dihydrotestosterone levels were redetermined and found to be 15 NG/DL (normal 25 to 75 NG/DL). This patient was then given the option to continue treatment with zafirlukast at a dose of 40 mg taken by mouth twice daily for the treatment of androgenic alopecia and decided to do so as they had witnessed the continued regrowth of hair and remission of hair loss while taking zafirlukast. […] The results are as follows:
(§2) In person two undergoing treatment with zafirlukast at 40 mg po bid for hereditary balding, their pretreatment dihydrotestosterone level was 5 NG/DL (normal 5 to 30 NG/DL); after 4 weeks of continuous treatment their dihydrotestosterone serum concentration was 4 NG/DL (normal 5 to 30 NG/DL) and at 6 weeks of continued treatment their serum dihydrotestosterone level was determined to be less than 3 NG/DL.

dihydrotestosterone = assay: Serum dihydrotestosterone level in patients treated with zafirlukast
Method: as §1
In person one undergoing treatment for Grade IV cystic acne vulgaris with zafirlukast at 40 mg po bid (by mouth twice a day) for 4 weeks, preceded by 2 weeks of zafirlukast treatment at 30 mg bid, their serum dihydrotestosterone level was determined to be 16 NG/DL (normal was 25 to 75 NG/DL).
as §2

[3] = system: acne vulgaris/acne rosacea; assay: Inception cohort investigational study of zafirlukast in acne vulgaris/acne rosacea patients
From the text: This study was designed to evaluate the effectiveness in treating acne vulgaris with the drug zafirlukast After having established a mechanism by which zafirlukast would be effective in the treatment of acne vulgaris, and subsequently treating a single case of acne conglobata successfully during the summer and fall of 1999, this study was purposely designed to evaluate the treatment of acne vulgaris with the drug zafirlukast
Objective: To determine if the anti-leukotriene zafirlukast is effective in the treatment of acne vulgaris/acne rosacea.
Design: Inception cohort investigational study conducted from October 1999 to January 2000.
Setting: Rural Family Practice clinic in Waldheim, La.
Participants: A total of 7 male and 8 female patients aged 12-45 years diagnosed with mild, moderate, or severe acne vulgaris including one case of acne conglobata and 2 cases of acne rosacea were given 20 mg. of zafirlukast (ACCOLATE® brand from AstraZeneca) twice daily from week 1 through week 4. The dose was increased to 30 mg. twice daily at week 4 and continued through week 8. At week 8 the dose of zafirlukast was decreased to 20 mg twice daily and continued until the termination of the study at 10 weeks.
Between the months of October and November 1999 both adolescent and adult patients were recruited consecutively at a family practice clinic in rural Louisiana to participate in an investigational study to determine the effectiveness of zafirlukast in the treatment of acne vulgarism Those patients who provided informed consent and who have reported a prior medical diagnosis of acne vulgaris were enlisted into the study. This cohort was composed of a total of seven male and eight female Caucasian patients, age twelve to forty five years, diagnosed with mild, moderate or severe acne vulgaris.
Pre-study recruitment assessment data was consistent with the following: one of fifteen patients was diagnosed with acne conglobata; two of fifteen patients were […] with acne rosacea, one of which had acne scars who had previously been treated with oral isotretinoin for nodular-cystic acne; eleven of fifteen patients with moderate to severe inflammatory/nodular-cystic acne; all patients had self medicated with topical comedolytic over-the-counter agents; three of fifteen patients had never been treated with prescription (topical or systemic) medications; twelve of fifteen patients were prescribed a range of three to five medical prescriptions (both topical and systemic) with varying degrees of success and failure; three of fifteen patients had previously taken oral isotretinoin; two of fifteen patients had been offered oral isotretinoin but refused that treatment.
Inclusion criteria for study enlistment encompassed any patient who was requesting medical treatment of a chief complaint of acne dermatitis, coincident with a clinical diagnosis of acne vulgaris confirmed by physical examination. These patients voluntarily agreed to be treated with zafirlukast knowing that alternative treatment (both topical and systemic) were available. At the initial visit all patients were instructed on the use of zafirlukast This was to be administered by mouth twice daily. The potential side effects, potential adverse reactions, and other risks were all explained. Patients all agreed to avoid any over-the-counter acne preparations and were to use any household soft-soap product to wash the facial skin twice daily. Zafirlukast was to be administered at the dose of 20 mg. twice daily from week one through week four and then to be increased to 30 mg. twice daily at week four and continued through week eight. At week eight the dose of zafirlukast was to be decreased to 20 mg. taken twice daily and continued until the completion of the study at ten weeks.
Main Outcome Measures: Subjective and objective medical examination and qualitative photographic analysis were employed at each patients initial visit to establish baseline. […]

For `COc1cc(C(=O)NS(=O)(=O)c2ccccc2C)ccc1Cc1cn(C)c2ccc(NC(=O)OC3CCCC3)cc12` [zafirlukast], the “acne lesion remission and clearing” value [1] was “significant improvement”, the “serum liver function studies” value ([2]; all patients including one with Hepatitis C) was “improved” and the “serum luteinizing hormone, total testosterone, androstenedione and dehydroepiandrosterone sulfate levels” value ([2]; person, 20 mg twice daily, about second month) was “normal”. The “serum 3-alpha androstanediol glucuronide, estrone, androstenedione, total testosterone, prostate specific antigen, and progesterone levels” value ([2]; person, 40 mg twice daily for one month) was “within normal limits”, the “side effects or adversities” value (androgenetic alopecia; person one (acne) and person two (balding), 40 mg po bid) was “never witnessing any side effects or adversities” and the “regrowth of frontal hair” value (androgenetic alopecia; person two, 40 mg po bid) was “regrowth of frontal hair”. The regrowth of hair (androgenetic alopecia; person, 20 mg twice daily, by the fourth month) was “regrowth of hair in the area of temporat and vertex balding was observed”, the “occurrence of hair loss” value (androgenetic alopecia; person, 20 mg twice daily, within the first 6 weeks) was “less occurrence of hair loss” and the side effects (androgenetic alopecia; person, 20-40 mg twice daily) was “never any side effects observed”. For the same molecule, the serum dihydrotestosterone level (dihydrotestosterone; person one, 40 mg po bid for 4 weeks preceded by 2 weeks at 30 mg bid, normal 25 to 75) was 16 ng/dL, the dihydrotestosterone serum concentration (dihydrotestosterone; person two, 40 mg po bid, after 4 weeks, pretreatment 5, normal 5 to 30) was 4 ng/dL and the serum dihydrotestosterone level (dihydrotestosterone; person two, 40 mg po bid, at 6 weeks) was “less than 3 NG/DL”. For the same molecule, the serum dihydrotestosterone level (dihydrotestosterone; person, 20 mg twice daily, completion of fourth month, normal 25 to 75) was 32 ng/dL, the serum dihydrotestosterone level (dihydrotestosterone; person, 40 mg twice daily for one month, normal 25 to 75) was 21 ng/dL and the serum dihydrotestosterone level (dihydrotestosterone; person, after one month abstinence from zafirlukast, normal 25 to 75) was 15 ng/dL. The “added benefit of higher dose” value ([3]; 30 mg twice daily from week 4 thru week 8 versus 20 mg twice daily) was “no added benefit”, the “acne remission during the study” value ([3]; 15 patients, 20-30 mg twice daily oral, 10 weeks) was “all participants attained periods of acne remission” and the “time to subjective and objective clinical improvement” value ([3]; after initiating zafirlukast therapy, routinely, observed as early as two weeks) was 3-4 weeks. The “time to acne reoccurrence in consistently non-compliant patients” value ([3]; after more than 2-3 doses missed) was 2 to 3 days, the “reduction of perilesional erythema” value ([3]; by week eight) was 80-90% and the “reduction of perilesional erythema” value ([3]; by week four) was 40-50%. The “resolution of perilesional erythema” value ([3]; by week two) was 10-15%, the “reoccurrence of acne form lesions after discontinuation” value ([3]; discontinuation of therapy over a 5-7 day period) was “equal to baseline levels” and the “remission in the one patient compliant throughout the entire study” value ([3]; fully compliant patient) was “complete remission”. The side effects ([3]; one participant with acne rosacea, taken on an empty stomach, only participant with side effects, none at 10 mg twice daily) was “asthenia”.
